Columns and labels:
[1] = test system: HCT116; assay: efficacy (fitted maximal change in viability relative to DMSO control); higher = less cytotoxic (negative = loss of viability); settings: 48 h
[2] = test system: HCT116; assay: AC50 cell viability (CellTiter-Glo); higher = less potent; settings: 48 h
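Throughout, for AC50 cell viability (CellTiter-Glo): HCT116 colorectal carcinoma cells screened at five concentrations per compound, luminescent viability scaled between DMSO wells and empty wells on each plate, curves fitted per compound.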
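Throughout, for efficacy (fitted maximal change in viability relative to DMSO control): Luminescence-based viability readout, five doses per compound, normalized against on-plate DMSO and empty-well controls, followed by dose-response curve fitting for every drug.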

SMILES	efficacy [1] [%]	AC50 cell viability [2] [µM]
COc1cc2ncnc(Nc3cccc(Cl)c3)c2cc1OC [AG-1478]	-91.8	23.5
O=C(Nc1cccc(C(F)(F)F)c1)Nc1cc([S+](=O)([O-])NC2CC2)ccc1-c1ccsc1 [AGI-6780]	-99.4	26.3
O=C(O)c1ccc2cc(-c3ccc(O)c(C45CC6CC(CC(C6)C4)C5)c3)ccc2c1 [AHPN]	-88.2	2.95
c1ccc(-c2oc3ncnc(NC[C@@H]4CCCO4)c3c2-c2ccccc2)cc1 [AIM-100]	-69.3	9.34
O=c1[nH]c2ccccc2n1C1CCN(Cc2ccc(-c3nc4cc5nc[nH]c5cc4nc3-c3ccccc3)cc2)CC1 [AKT Inhibitor VIII]	-84.5	16.6
CCN1CCN(Cc2ccc(NC(=O)c3ccc(C)c(NC(=O)c4cncc(-c5cccs5)c4)c3)cc2C(F)(F)F)CC1 [ALW-II-41-27]	-111	1.86
CN(CCO)C1CCN(c2ccc(Nc3ncc4c5ccnc(F)c5n(C5CCCC5)c4n3)nc2)CC1 [AM-5992]	-50	1.02
COC1=CC=C2C(=CC=NC2=C1)OC3=CC=C(NC(=O)\C4=C(C)\N(CC(C)(C)O)N(C4=O)C5=CC=CC=C5)C=C3F [AMG-1]	-67.9	11.8
CC\1=C(C(=O)N(\C=C1)C2=CC=C(C=C2)C3=NC=CO3)/C4=CC5=CN=C(N)N=C5C=C4 [AMG-25]	-47.6	1.66
Cc1ccc(C(=O)Nc2cccc(C(F)(F)F)c2)cc1-c1ccc2nc(NCCN3CCOCC3)ncc2c1 [AMG-47a]	-101	2.35
COC1=C(OCCCN2CCOCC2)C=C3N=CC=C(OC4=CC=C(C=C4F)\C5=C\N=C(\NC6=CC=C(F)C=C6)N(C)C5=O)C3=C1 [AMG-51]	-136	16.6
CC(C)[C@@H](C[S+](=O)([O-])C(C)C)N1C(=O)[C@@](C)(CC(=O)O)C[C@H](c2cccc(Cl)c2)[C@H]1c1ccc(Cl)cc1 [AMG-232]	-84.7	1.48
COC1=CC2=NC=CC(=C2C=C1)OC3=CN=C(NC(=O)C/4=C(C)/N(CC(C)(C)O)N(C4=O)C5=CC=CC=C5)C=C3 [AMG-458]	-71.6	16.6
COc1ncc(Nc2ncc([C@H](C)N3CCN([S+](C)(=O)[O-])CC3)cc2-c2nc(C)nc(N)n2)cc1F [AMG-511]	-80.5	5.9
CN\1C(=O)/C(=C(\N=C1NC[C@@H](N)CC2=CC=CC=C2)C3=CC=NC=C3)C4=CC5=C(C=CC=C5)C=C4 [AMG-548]	-101	20.9
CC#C[C@@H](CC(=O)O)c1ccc(OCc2cccc(-c3ccc(C(F)(F)F)cc3)c2)cc1 [AMG-837]	-40.8	20.9
Cc1csc(-c2nnc(Nc3ccc(Oc4ncccc4-c4ccnc(N)n4)cc3)c3ccccc23)c1 [AMG-900]	-52.9	16.6
CNc1nccc(-c2cccnc2Oc2cc(C(=O)Nc3cccc(C(F)(F)F)c3)ccc2C)n1 [AMG-Tie2-1]	-78.8	1.66
Cc1[nH]c2ccc(F)cc2c1-c1nc2c3cccnc3c3ncccc3c2[nH]1 [APTO-253]	-77.4	0.679

SMILES	efficacy [1] [%]	AC50 cell viability [2] [µM]
c1cc(Nc2cc(C3CC3)n[nH]2)nc(Nc2ccc3nc[nH]c3c2)n1 [APY29]	-66.4	0.235
NCCCN([C@H](CC#C)C/1=N/C2=C(C=CC(=C2)Cl)C(=O)N1NC3=CC=CC=C3)C(=O)C4=CC=CC(=C4F)Cl [ARQ-621]	-102	0.468
Cn1cnc2c(F)c(Nc3ccc(Br)cc3F)c(C(=O)NOCCO)cc21 [ARRY-162]	-60.8	0.468
C[C@H](NC(=O)[C@@H]1C[C@@H](O)CN1C(=O)[C@@H](NC(=O)COCCCOCCNC(=O)C[C@@H]2\N=C(C3=CC=C(Cl)C=C3)/C4=C(SC(=C4C)C)[N]5C(=NN=C25)C)C(C)(C)C)C6=CC=C(C=C6)C7=C(C)N=CS7 [ARV-771]	-91	0.148
CC1=C(C)C\2=C(S1)[N]3C(=NN=C3[C@H](CC(=O)NC4=CC=C(OCCOCCOCCOCCNC5=CC=CC6=C5C(=O)N(C7CCC(=O)NC7=O)C6=O)C=C4)\N=C2C8=CC=C(Cl)C=C8)C (some centres not stated) [ARV-825]	-73.3	0.263
COc1cc(N2CCC(N3CCN(C)CC3)CC2)ccc1Nc1ncnc(Nc2ccccc2[S+](=O)([O-])C(C)C)n1 [ASP-3026]	-82.2	4.68
C=CC(=O)Nc1ccc2ncnc(Nc3ccc(OCc4cccc(F)c4)c(Cl)c3)c2c1 [AST-1306]	-98.3	11.8
O=C(NC1CCNCC1)c1n[nH]cc1NC(=O)c1c(Cl)cccc1Cl [AT-7519]	-65.1	0.235
Clc1ccc(C2(c3ccc(-c4cn[nH]c4)cc3)CCNCC2)cc1 [AT-7867]	-87.4	18.6
O=C(Nc1c[nH]nc1-c1nc2cc(CN3CCOCC3)ccc2[nH]1)NC1CC1 [AT-9283]	-62.5	0.417
C=CC(=O)Nc1cc2c(Nc3ccc(F)c(Cl)c3)ncnc2cc1C#CC(C)(C)N1CCN(C)CC1 [AV-412]	-104	9.34
CC[C@H](CC#N)OC(=O)N[C@@H](C)c1cccc(NC(=O)Nc2ccc(-c3cnco3)c(OC)c2)c1 [AVN944]	-72.8	0.332
CC(C)Oc1cc(Nc2nc(N[C@@H](C)c3ccc(F)cn3)ncc2Cl)n[nH]1 [AZ-23]	-67.9	5.25
CCCc1cc(C(=O)N[C@H](Cc2ccc(-c3cccc(OC(F)(F)F)c3)nc2)C(=O)N[C@@H]2CCNC2)sc1C [AZ-82]	-97.3	8.33
COc1cc(N2CCN(C)CC2)ccc1Nc1nccc(-c2cn(C)c3cnccc23)n1 [AZ-191]	-88.4	18.6
CN1\C=N/C2=CC=C(NC3=CC(=CC=C3C)NC(=O)C4=CC(=CC=C4)C(C)(C)C#N)C=C2C1=O [AZ-628]	-50.6	0.332
Cc1cc(Nc2nc(N[C@@H](C)c3ccc(F)cc3)c(C#N)cc2F)n[nH]1 [AZ-960]	-100	5.9
COc1cc(OC2CCN(C)CC2)ccc1Nc1ncc2c(n1)n(C1CCCC1)c(=O)n2C [AZ-3146]	-102	5.9
O=C1N\N=C(\CC2=CC=CC(=C2)C(=O)N3CCN(CC3)C4=NC=CC=C4C#N)C5=CC=CC=C15 [AZ-9482]	-54.2	5.25

SMILES	efficacy [1] [%]	AC50 cell viability [2] [µM]
NC(=O)Nc1cc(-c2ccc(CN3CCOCC3)cc2)sc1C(N)=O [AZ-TAK1 Inhibitor]	-71	5.25
CN(C)CCCOc1ccc(-c2ccc3ncc4c(c3c2)n(C2CCOCC2)c(=O)n4C)cn1 [AZD-0156]	-86	7.23
NC1CCCN(c2c(/C=C3\SC(=O)NC3=O)cccc2-c2ccccc2)C1 (configuration not stated) [AZD-1208]	-67.1	23.5
Cc1cc(Nc2nc(N[C@@H](C)c3ncc(F)cn3)ncc2Cl)n[nH]1 [AZD-1480]	-66.2	5.25
C[C@H]1COCCN1c1cc(C2([S+](=O)([O-])C3CC3)CC2)nc(-c2ccc(NC(=S)NCCO)cc2)n1 [AZD-3147]	-113	7.42
COc1cc(N2CCC(N)CC2)ccc1Nc1ncc(Cl)c(-c2c[nH]c3ccccc23)n1 [AZD-3463]	-137	5.9
COc1cc(CCc2cc(NC(=O)c3ccc(N4C[C@@H](C)N[C@@H](C)C4)cc3)n[nH]2)cc(OC)c1 [AZD-4547]	-98.5	10.5
COc1nnc2ccc(N3CCC(c4ccc(OCCN5CCN(C)C(=O)[C@H]5C)cc4)CC3)nn12 [AZD-5153 6-Hydroxy-2-naphthoic acid]	-68.6	0.0833
NC1(C(=O)N[C@@H](CCO)c2ccc(Cl)cc2)CCN(c2ncnc3[nH]ccc23)CC1 [AZD-5363]	-83.1	11.8
Cc1ncc(-c2ccnc(Nc3ccc([S+](C)(=O)[O-])cc3)n2)n1C(C)C [AZD-5438]	-62.2	0.525
C[C@@H](NC1=CC=CC=C1C(O)=O)C/2=C/C(=C\N3C(=O)/C=C(\N=C23)N4CCOCC4)C [AZD-6482]	-52.7	10.5
C[C@@H]1COCCN1c1cc(C2([S@+](C)(=N)[O-])CC2)nc(-c2ccnc3[nH]ccc23)n1 [AZD-6738]	-84.1	8.33
CN(C)C(=O)c1ccc([S+](=O)([O-])c2ccc(NC(=O)[C@@](C)(O)C(F)(F)F)c(Cl)c2)cc1 [AZD-7545]	-33.1	5.9
NC(=O)Nc1cc(-c2cccc(F)c2)sc1C(=O)N[C@H]1CCCNC1 [AZD-7762]	-101	0.833
COc1ccc(-c2ccc3c(N4CCOC[C@@H]4C)nc(N4CCOC[C@@H]4C)nc3n2)cc1CO [AZD-8055]	-51.6	0.295
C[C@@H](Nc1cc(F)cc(F)c1)c1cc(C(=O)N(C)C)cc2c(=O)cc(N3CCOCC3)oc12 [AZD-8186]	-78.7	10.5
CN1C(=O)\C(=C/C(=C1/NC2=C(F)C=C(I)C=C2)C(=O)NOCCO)C [AZD-8330]	-68.6	0.00934
CCN1CCN(Cc2ccc(Nc3ncc(F)c(-c4cc(F)c5nc(C)n(C(C)C)c5c4)n3)nc2)CC1 [Abemaciclib]	-109	4.17

From the supplement of paper PMC10290057
